According to patent publication US20250326794A1, “ANTI-CANCER LEUCINE-RICH PEPTIDES AND USES THEREOF” (KING'S COLLEGE LONDON, priority 2019, published 2025):

Assays:
[1] = test system: HEK293T (human embryonic kidney cell); assay: cells; settings: 72 h
[2] = test system: HMLER (human breast cancer bulk cell); assay: cells; settings: 72 h
In short: (§1)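 MTT viability after 72 h exposure to 0–100 μM compound (final DMSO 0.5% or 0%), 5×10^3 cells/well; HMLER lines and MCF-10A in MEGM, U2OS in DMEM with 10% FBS. A550 normalized to matching vehicle controls; IC50 interpolated from dose–response curves.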

[3] = test system: HMLER-shEcad (human breast cancer stem cell); assay: cells; settings: 72 h
In short: as §1

[4] = test system: U2OS (human bone osteosarcoma); settings: 72 h
In short: as §1

[5] = Tryptophan fluorescent binding assay, POPC vesicles; settings: 50 μM peptide, PBS pH 7.4, lipid per peptide
Method: (§2) In brief, 50 μM peptides were fixed and incubated with titrated POPC vesicles (black) or 3POPC/1POPG vesicles (grey) at concentrations of 0, 12.5, 25, 50, 100, 250, 500, 1000, 2500, and 5000 μM in phosphate buffered saline (1×, pH 7.4). The lipid concentration that causes 50% peptide binding was determined using a tryptophan fluorescent binding assay and the values are shown as lipid per peptide.
(§3) The lipids 1-palmitoyl-2-oleoyl-sn-glycero-3-phosphocholine (POPC), 1-palmitoyl-2-oleoyl-snglycero-3-phospho-(1′-rac-glycerol) (POPG) were purchased from Avanti Polar Lipids and dissolved in chloroform. Large unilamellar vesicles (LUVs) were produced by extrusion through 100 nm pore filter using an extruder and filters purchased from Avanti Polar Lipids.
(§4) Peptides (50 μM) and POPC/POPG LUVs (600 μM) were prepared in 10 mM phosphate buffer (pH 7.0). The solutions were incubated and measured after 60 minutes. Excitation was fixed at 280 nm (slit 9 nm) and emission was collected from 300 to 450 nm (slit 9 nm). The spectra were recorded using a Synergy H1 Hybrid Multi-Mode Reader (FIG. 3A) and Cytation™ 5 Cell Imaging Multi-Mode Reader (FIG. 2) from BioTek and were averaged over 3 scans.
(§5) Table 3 illustrates the lipid concentration-induced 50% peptide binding onto a liposome. 50 μM peptide was fixed and incubated with titrated lipid (POPC vesicles or 3POPC/1POPG vesicles) at concentrations of 0, 12.5, 25, 50, 100, 250, 500, 1000, 2500, and 5000 μM in phosphate buffered saline (1×, pH 7.4). The lipid concentration that causes 50% peptide binding was determined using tryptophan fluorescent binding assay and the values are shown as lipid per peptide. †N-terminus is free, C-terminus: —W—NH2.

[6] = Tryptophan fluorescent binding assay, 3POPC/1POPG vesicles; settings: 50 μM peptide, PBS pH 7.4, lipid per peptide
Method: as §2, §3, §4, §5

[7] = ANTS/DPX liposome leakage assay, POPC vesicles; assay type: biochemical; settings: 0.5 mM vesicles; for Peptide Concentration-induced 50% ANTS/DPX leakage at pH 4.8, POPC Vesicle: pH 4.8, lipid per peptide; for Peptide Concentration-induced 50% ANTS/DPX leakage at pH 7.4, POPC Vesicle: pH 7.4, lipid per peptide
Method: (§6) In brief, 0.5 mM POPC vesicles (grey) or POPC:POPG vesicles (ratio 3:1, black) were incubated with peptide concentrations of 0, 0.02, 0.04, 0.08, 0.16, 0.32, 0.64, 1.25, 2.5, 5, 10, and 20 μM in each A) hydrochloric acid-adjusted phosphate buffered saline (1×, pH 4.8) and B) phosphate buffered saline (1×, pH 7.4).
as §3
(§7) 5 mM ANTS (8-aminonaphthalene-1,3,6-trisulfonic acid, disodium salt) and 12.5 mM DPX (p-xylene-bis-pyridinium bromide) were entrapped in 0.1 μm diameter extruded vesicles with lipids. Gel filtration chromatography using a Sephadex G-100 (GE Healthcare Life Sciences Inc) was used to remove external free ANTS/DPX from LUVs with entrapped contents. LUVs were diluted to 0.5 mM and used to measure the leakage activity by addition of aliquots of peptides. Leakage was measured after 3 h incubation. 10% Triton was used as the positive control to measure the maximum leakage of the vesicle. Fluorescence emission spectra were recorded using excitation and emission wavelength of 350 nm and 510 nm for ANTS/DPX using a BioTek Synergy H1 Hybrid Multi-Mode Reader.
(§8) Table 4 illustrates peptide concentration-induced 50% ANTS/DPX liposome leakage. 0.5 mM POPC and 3POPC/1POPG vesicles were fixed and incubated with titrated peptide concentration ([…]) each in phosphate buffered saline (1×, pH 7.4) and hydrochloric acid-adjusted phosphate buffered saline (1×, pH 4.8). The values are shown as lipid per peptide. †N-terminus is free, C-terminus: —W—NH2.

[8] = ANTS/DPX liposome leakage assay, 3POPC/1POPG vesicles; assay type: biochemical; settings: 0.5 mM vesicles; for Peptide Concentration-induced 50% ANTS/DPX leakage at pH 4.8, 3POPC/1POPG Vesicle: pH 4.8, lipid per peptide; for Peptide Concentration-induced 50% ANTS/DPX leakage at pH 7.4, 3POPC/1POPG Vesicle: pH 7.4, lipid per peptide
Method: as §6, §3, §7, §8

Structure (SMILES)	IC50 [1] [µM]	IC50 [2] [µM]	IC50 [3] [µM]	IC50 [4] [µM]	Lipid Concentration-induced 50% Peptide Binding, POPC Vesicle [5] [L/P]	Lipid Concentration-induced 50% Peptide Binding, 3POPC/1POPG Vesicle [6] [L/P]	Peptide Concentration-induced 50% ANTS/DPX leakage at pH 4.8, POPC Vesicle [7] [L/P]	Peptide Concentration-induced 50% ANTS/DPX leakage at pH 7.4, POPC Vesicle [7] [L/P]	Peptide Concentration-induced 50% ANTS/DPX leakage at pH 4.8, 3POPC/1POPG Vesicle [8] [L/P]	Peptide Concentration-induced 50% ANTS/DPX leakage at pH 7.4, 3POPC/1POPG Vesicle [8] [L/P]
CC(C)C[C@H](NC(=O)CN)C(=O)N[C@@H](CC(C)C)C(=O)N[C@@H](CCC(=O)O)C(=O)N[C@@H](CC(C)C)C(=O)N[C@@H](CC(C)C)C(=O)N[C@@H](CCCCN)C(=O)N[C@@H](CC(C)C)C(=O)N[C@@H](CC(C)C)C(=O)N[C@@H](CC(C)C)C(=O)N[C@@H](Cc1c[nH]cn1)C(=O)N[C@@H](C)C(=O)N[C@@H](C)C(=O)NCC(=O)N[C@@H](Cc1c[nH]c2ccccc12)C(N)=O [EKH]	6.65 ± 1.34	2.75 ± 0.07	2.18 ± 0.31	23.8 ± 0.81	0.75	0.19	55	608	88	365
CC(C)C[C@H](NC(=O)CN)C(=O)N[C@@H](CC(C)C)C(=O)N[C@@H](CCC(=O)O)C(=O)N[C@@H](CC(C)C)C(=O)N[C@@H](CC(C)C)C(=O)N[C@@H](CCCCN)C(=O)N[C@@H](CC(C)C)C(=O)N[C@@H](CC(C)C)C(=O)N[C@@H](CC(C)C)C(=O)N[C@@H](CCCCN)C(=O)N[C@@H](C)C(=O)N[C@@H](C)C(=O)NCC(=O)N[C@@H](Cc1c[nH]c2ccccc12)C(N)=O [EKK]	3.35 ± 0.49	1.72 ± 0.21	1.19 ± 0.4	12.2 ± 1.84	1.50	0.63	60	1095	219	235
CC(C)C[C@H](NC(=O)CN)C(=O)N[C@@H](CC(C)C)C(=O)N[C@@H](Cc1c[nH]cn1)C(=O)N[C@@H](CC(C)C)C(=O)N[C@@H](CC(C)C)C(=O)N[C@@H](CCC(=O)O)C(=O)N[C@@H](CC(C)C)C(=O)N[C@@H](CC(C)C)C(=O)N[C@@H](CC(C)C)C(=O)N[C@@H](CCC(=O)O)C(=O)N[C@@H](C)C(=O)N[C@@H](C)C(=O)NCC(=O)N[C@@H](Cc1c[nH]c2ccccc12)C(N)=O [HEE]	10.2 ± 0.2	6.5 ± 0.71	4.95 ± 0.49	47.5 ± 11	0.58	0.50	100	876	122	792
CC(C)C[C@H](NC(=O)CN)C(=O)N[C@@H](CC(C)C)C(=O)N[C@@H](Cc1c[nH]cn1)C(=O)N[C@@H](CC(C)C)C(=O)N[C@@H](CC(C)C)C(=O)N[C@@H](CCC(=O)O)C(=O)N[C@@H](CC(C)C)C(=O)N[C@@H](CC(C)C)C(=O)N[C@@H](CC(C)C)C(=O)N[C@@H](Cc1c[nH]cn1)C(=O)N[C@@H](C)C(=O)N[C@@H](C)C(=O)NCC(=O)N[C@@H](Cc1c[nH]c2ccccc12)C(N)=O [HEH]	8.8 ± 1.7	28.6 ± 10.8	11 ± 1.06	106 ± 14	0.88	3.50	173	995	24	505
CC(C)C[C@H](NC(=O)CN)C(=O)N[C@@H](CC(C)C)C(=O)N[C@@H](Cc1c[nH]cn1)C(=O)N[C@@H](CC(C)C)C(=O)N[C@@H](CC(C)C)C(=O)N[C@@H](Cc1c[nH]cn1)C(=O)N[C@@H](CC(C)C)C(=O)N[C@@H](CC(C)C)C(=O)N[C@@H](CC(C)C)C(=O)N[C@@H](CCC(=O)O)C(=O)N[C@@H](C)C(=O)N[C@@H](C)C(=O)NCC(=O)N[C@@H](Cc1c[nH]c2ccccc12)C(N)=O [HHE]	18.4 ± 3.75	16.7 ± 2.26	10.8 ± 0.78	53.2 ± 5.3	1.00	0.75	143	842	113	411
CC(C)C[C@H](NC(=O)CN)C(=O)N[C@@H](CC(C)C)C(=O)N[C@@H](Cc1c[nH]cn1)C(=O)N[C@@H](CC(C)C)C(=O)N[C@@H](CC(C)C)C(=O)N[C@@H](Cc1c[nH]cn1)C(=O)N[C@@H](CC(C)C)C(=O)N[C@@H](CC(C)C)C(=O)N[C@@H](CC(C)C)C(=O)N[C@@H](Cc1c[nH]cn1)C(=O)N[C@@H](C)C(=O)N[C@@H](C)C(=O)NCC(=O)N[C@@H](Cc1c[nH]c2ccccc12)C(N)=O [HHH]	30.6 ± 4.81	21.1 ± 6.93	9.5 ± 0.99	185 ± 7	0.46	0.82	173	1133	50	469
CC(C)C[C@H](NC(=O)CN)C(=O)N[C@@H](CC(C)C)C(=O)N[C@@H](Cc1c[nH]cn1)C(=O)N[C@@H](CC(C)C)C(=O)N[C@@H](CC(C)C)C(=O)N[C@@H](Cc1c[nH]cn1)C(=O)N[C@@H](CC(C)C)C(=O)N[C@@H](CC(C)C)C(=O)N[C@@H](CC(C)C)C(=O)N[C@@H](CCCCN)C(=O)N[C@@H](C)C(=O)N[C@@H](C)C(=O)NCC(=O)N[C@@H](Cc1c[nH]c2ccccc12)C(N)=O [HHK]	5.25 ± 1.48	3.15 ± 0.07	1.75 ± 0.21	12.7 ± 1.91	0.68	0.20	149	1133	111	160
CC(C)C[C@H](NC(=O)CN)C(=O)N[C@@H](CC(C)C)C(=O)N[C@@H](Cc1c[nH]cn1)C(=O)N[C@@H](CC(C)C)C(=O)N[C@@H](CC(C)C)C(=O)N[C@@H](CCCCN)C(=O)N[C@@H](CC(C)C)C(=O)N[C@@H](CC(C)C)C(=O)N[C@@H](CC(C)C)C(=O)N[C@@H](CCC(=O)O)C(=O)N[C@@H](C)C(=O)N[C@@H](C)C(=O)NCC(=O)N[C@@H](Cc1c[nH]c2ccccc12)C(N)=O [HKE]	5.15 ± 0.64	2.7 ± 0.28	1.9 ± 0.42	16 ± 0.78	0.75	0.25	173	692	94	365
